Measurements from ChEMBL document CHEMBL1201862, “PubChem BioAssay data set” (2004).
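In this assay, cells in 96-well plates receive the compound at five concentrations for 48 hours. Endpoints are linearly interpolated between the surrounding concentrations. The concentration for 50% growth inhibition is given as GI50.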 Activity calls are given as the source filed them. Cut-off read from the data, not from the text of the source: active = GI50 up to about 1.1 µM and inactive = higher.

Tests used:
Experiment in all cases: NCI tumour cell line growth inhibition, 48 h
HCT-15 = test system: HCT-15
SNB-19 = test system: SNB-19
SF-539 = test system: SF-539
NCI-H522 = test system: NCI-H522
HCC 2998 = test system: HCC 2998
SK-OV-3 = test system: SK-OV-3
ACHN = test system: ACHN
CAKI-1 = test system: CAKI-1
OVCAR-4 = test system: OVCAR-4
OVCAR-5 = test system: OVCAR-5
SNB-75 = test system: SNB-75
TK-10 = test system: TK-10
NCI-H226 = test system: NCI-H226
UACC-62 = test system: UACC-62
NCI-H23 = test system: NCI-H23
HT-29 = test system: HT-29
SF-268 = test system: SF-268
A498 = test system: A498
SK-MEL-28 = test system: SK-MEL-28

Compound	GI50 (HCT-15)	GI50 (SNB-19)	GI50 (SF-539)	GI50 (NCI-H522)	GI50 (HCC 2998)	GI50 (SK-OV-3)	GI50 (ACHN)	GI50 (CAKI-1)	GI50 (OVCAR-4)	GI50 (OVCAR-5)	GI50 (SNB-75)	GI50 (TK-10)	GI50 (NCI-H226)	GI50 (UACC-62)	GI50 (NCI-H23)	GI50 (HT-29)	GI50 (SF-268)	GI50 (A498)	GI50 (SK-MEL-28)
COc1cc2c(c(OC)c1OC)-c1ccc(SC)cc1C(=O)CC2	< 0.01 µM	< 0.01 µM (active)	< 0.01 µM (active)	< 0.01 µM (active)	< 0.01 µM (active)	< 0.01 µM (active)	< 0.01 µM (active)	< 0.0227 µM (active)	7.76 µM (inactive)	> 100 µM (inactive)	1 µM (active)	> 100 µM (inactive)	< 0.01 µM (active)	< 0.01 µM (active)	< 0.01 µM (active)	< 0.01 µM (active)			
CCC1C(=O)OCc2c1cc1n(c2=O)C(CC)c2c-1nc1ccccc1c2Cl (stereo not given)	36.6 µM	29.6 µM (inactive)	17.3 µM (inactive)	15 µM (inactive)		33.9 µM (inactive)	27.4 µM (inactive)	23 µM (inactive)	22.4 µM (inactive)	23.1 µM (inactive)		40.9 µM (inactive)	29.1 µM (inactive)	18.2 µM (inactive)	25.6 µM (inactive)	24.1 µM (inactive)	23.9 µM (inactive)	21.9 µM (inactive)	35 µM (inactive)
CCOc1ccc(NC(=O)CC2SC(N)=NC2=O)cc1 (stereo not given)		> 100 µM (inactive)			> 100 µM (inactive)		> 100 µM (inactive)		> 100 µM (inactive)	> 100 µM (inactive)	> 100 µM (inactive)	> 100 µM (inactive)	> 100 µM (inactive)	> 100 µM (inactive)	> 100 µM (inactive)	> 100 µM (inactive)	> 100 µM (inactive)		> 100 µM (inactive)
C[N+](C)(C)C.FC(F)(F)C1(C(F)(F)F)O[SiH-]2(OC(C(F)(F)F)(C(F)(F)F)c3ccccc32)c2ccccc21	10.4 µM	7.18 µM (inactive)	11.9 µM (inactive)	22.1 µM (inactive)	19.2 µM (inactive)		22.8 µM (inactive)	26.4 µM (inactive)	6.47 µM (inactive)	13.2 µM (inactive)		16.9 µM (inactive)	4.86 µM (inactive)		11 µM (inactive)	11.2 µM (inactive)			26.2 µM (inactive)
COc1ccc(OC(C(=O)O)C(C)C)c2c1CCCC2=O (stereo not given)	> 100 µM	> 100 µM (inactive)	> 100 µM (inactive)	> 100 µM (inactive)	> 100 µM (inactive)	> 100 µM (inactive)	> 100 µM (inactive)	> 100 µM (inactive)	> 100 µM (inactive)	> 100 µM (inactive)		> 100 µM (inactive)		> 100 µM (inactive)	> 100 µM (inactive)	> 100 µM (inactive)	> 100 µM (inactive)	> 100 µM (inactive)	> 100 µM (inactive)
CN(C)c1nc(N(C)C)nc(N(C)CN(C)c2ccc(Cl)cc2)n1	> 100 µM	> 100 µM (inactive)	> 100 µM (inactive)	> 100 µM (inactive)		> 100 µM (inactive)	> 100 µM (inactive)		> 100 µM (inactive)		> 100 µM (inactive)	> 100 µM (inactive)	> 100 µM (inactive)	> 100 µM (inactive)	> 100 µM (inactive)	> 100 µM (inactive)	> 100 µM (inactive)		> 100 µM (inactive)
C=C1C(=O)C23C(O)CC4C5(C)CCCC4(C(O)OC5)C2C(OC(C)=O)CC1C3O (stereo not given)	11.7 µM	14.7 µM (inactive)	10.9 µM (inactive)	1.58 µM (inactive)	18.2 µM (inactive)	19.7 µM (inactive)	12.2 µM (inactive)	4.95 µM (inactive)	14.3 µM (inactive)	18 µM (inactive)	4.28 µM (inactive)	10.9 µM (inactive)	19.5 µM (inactive)	6.73 µM (inactive)	5.41 µM (inactive)	5 µM (inactive)	13.3 µM (inactive)		10.5 µM (inactive)
